From the supplement of paper PMC7017272
± gives the standard deviation of the averaged measurements.

Experiments:
Conditions in all cases: treatment time: 3 days
[1] = system: UT-SCC-106A; test: maximal % inhibition of viability relative to DMSO; higher = stronger effect
Summary of the method: (§1)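 HPV-negative HNSCC cell lines were plated at 500 cells/well in 384-well plates, either on plastic, on wells coated with Matrigel or Myogel (500 µg/mL), or embedded in Matrigel or Myogel plus rat collagen I. Each compound was tested at five 10-fold concentrations over 3 days. Viability was measured by CellTiter-Glo 2.0 luminescence, and IC50, maximal inhibition and drug sensitivity score came from percent-inhibition dose–response curves fitted in the FIMM pipeline after normalisation to vehicle (0.1% DMSO) and cell-killing control wells.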

[2] = system: UT-SCC-40; test: as above
Summary of the method: as §1

[3] = system: UT-SCC-42A; test: as above
Summary of the method: as §1

[4] = system: UT-SCC-28; test: as above
Summary of the method: as §1

[5] = system: UT-SCC-73; test: as above
Summary of the method: as §1

[6] = system: UT-SCC-44; test: as above
Summary of the method: as §1

[7] = system: UT-SCC-24B; test: as above
Summary of the method: as §1

[8] = system: UT-SCC-8; test: as above
Summary of the method: as §1

[9] = system: UT-SCC-106A; test: relative IC50 (midpoint of the fitted curve; maximal inhibition may be below 50%); higher = less potent
Summary of the method: as §1

[10] = system: UT-SCC-14; test: as above
Summary of the method: as §1

[11] = system: UT-SCC-40; test: as above
Summary of the method: as §1

[12] = system: UT-SCC-42A; test: as above
Summary of the method: as §1

[13] = system: UT-SCC-42B; test: as above
Summary of the method: as §1

[14] = system: UT-SCC-81; test: as above
Summary of the method: as §1

[15] = system: UT-SCC-28; test: as above
Summary of the method: as §1

[16] = system: UT-SCC-73; test: as above
Summary of the method: as §1

[17] = system: UT-SCC-44; test: as above
Summary of the method: as §1

[18] = system: UT-SCC-24B; test: as above
Summary of the method: as §1

[19] = system: UT-SCC-8; test: as above
Summary of the method: as §1

[20] = culture condition: embedded in Matrigel
[21] = culture condition: embedded in Myogel + collagen I
[22] = culture condition: on top of Matrigel
[23] = culture condition: on top of Myogel
[24] = culture condition: plastic 2D (no matrix)

How did the “maximal % inhibition of viability” value [1, 20] turn out when `O=C(NC[C@H](O)CO)c1ccncc1Nc1ccc(I)cc1F` [Pimasertib] was run?
Its value is 53.5 ± 4.2%.

What about the “maximal % inhibition of viability” value [1, 21] of the same compound?
Its value is 43.4 ± 1.8%.

What about the “maximal % inhibition of viability” value [1, 22] of the same compound?
Its value is 63.2 ± 0.68%.

And the “maximal % inhibition of viability” value [1, 23]?
Its value is 54.1 ± 3.3%.

What about the “maximal % inhibition of viability” value [1, 24] of the same compound?
The value was 70 ± 1.2%.

And the “maximal % inhibition of viability” value [2, 20]?
Its value is 80.6 ± 0.3%.

And the “maximal % inhibition of viability” value [2, 21]?
The value was 72.8 ± 3.5%.

What about the “maximal % inhibition of viability” value [2, 22] of the same compound?
Its value is 77.77 ± 0.35%.

What about the “maximal % inhibition of viability” value [2, 23] of the same compound?
The value was 64.6 ± 2.5%.

What about the “maximal % inhibition of viability” value [2, 24] of the same compound?
The value was 64.5 ± 4.9%.

What about the “maximal % inhibition of viability” value [3, 20] of the same compound?
Its value is 61.3 ± 7.5%.

And the “maximal % inhibition of viability” value [3, 21]?
Its value is 51.3 ± 6.6%.

And the “maximal % inhibition of viability” value [3, 22]?
The value was 63.2 ± 0.95%.

And the “maximal % inhibition of viability” value [3, 23]?
The value was 55.7 ± 5.7%.

And the “maximal % inhibition of viability” value [3, 24]?
Its value is 60.4 ± 7.4%.

And the “maximal % inhibition of viability” value [4, 20]?
Its value is 54.1 ± 6.8%.

What about the “maximal % inhibition of viability” value [4, 21] of the same compound?
The value was 51 ± 6.3%.

And the “maximal % inhibition of viability” value [4, 22]?
Its value is 54.8 ± 1.5%.

And the “maximal % inhibition of viability” value [4, 24]?
The value was 32.7 ± 3.9%.

What about the “maximal % inhibition of viability” value [5, 20] of the same compound?
Its value is 86.2 ± 1.2%.

What about the “maximal % inhibition of viability” value [5, 21] of the same compound?
Its value is 78.7 ± 13%.

And the “maximal % inhibition of viability” value [5, 22]?
The value was 81.93 ± 0.55%.

What about the “maximal % inhibition of viability” value [5, 23] of the same compound?
Its value is 76.4 ± 1.3%.

What about the “maximal % inhibition of viability” value [5, 24] of the same compound?
Its value is 79.6 ± 1.4%.

What about the “maximal % inhibition of viability” value [6, 20] of the same compound?
Its value is 93.77 ± 0.93%.

What about the “maximal % inhibition of viability” value [6, 21] of the same compound?
Its value is 66.6 ± 8.2%.

What about the “maximal % inhibition of viability” value [6, 22] of the same compound?
The value was 81.8 ± 2.8%.

And the “maximal % inhibition of viability” value [6, 23]?
Its value is 66.3 ± 3.5%.

What about the “maximal % inhibition of viability” value [6, 24] of the same compound?
The value was 69.6 ± 7.2%.

What about the “maximal % inhibition of viability” value [7, 20] of the same compound?
Its value is 72.7 ± 1.5%.

And the “maximal % inhibition of viability” value [7, 21]?
The value was 79.1 ± 8.2%.

And the “maximal % inhibition of viability” value [7, 22]?
Its value is 75.8 ± 2.7%.

What about the “maximal % inhibition of viability” value [7, 23] of the same compound?
The value was 67.9 ± 2.7%.

And the “maximal % inhibition of viability” value [7, 24]?
Its value is 88.9 ± 1.2%.

And the “maximal % inhibition of viability” value [8, 20]?
The value was 93.8 ± 1.2%.

What about the “maximal % inhibition of viability” value [8, 21] of the same compound?
The value was 82.5 ± 1.6%.

What about the “maximal % inhibition of viability” value [8, 22] of the same compound?
The value was 90.4 ± 0.76%.

What about the “maximal % inhibition of viability” value [8, 23] of the same compound?
The value was 85.8 ± 2.3%.

And the “maximal % inhibition of viability” value [8, 24]?
The value was 90.3 ± 2.2%.

What about the “relative IC50” value [9, 20] of the same compound?
The value was 11.7 nM.

What about the “relative IC50” value [9, 21] of the same compound?
The value was 491 nM.

What about the “relative IC50” value [9, 22] of the same compound?
The value was 11.5 nM.

What about the “relative IC50” value [9, 23] of the same compound?
The value was 768 nM.

What about the “relative IC50” value [9, 24] of the same compound?
The value was 19 nM.

And the “relative IC50” value [10, 22]?
Its value is 250 nM.

What about the “relative IC50” value [10, 23] of the same compound?
Its value is 416 nM.

And the “relative IC50” value [10, 24]?
The value was 637 nM.

What about the “relative IC50” value [11, 20] of the same compound?
The value was 12.9 nM.

What about the “relative IC50” value [11, 21] of the same compound?
Its value is 45.4 nM.

And the “relative IC50” value [11, 22]?
Its value is 30.1 nM.

What about the “relative IC50” value [11, 23] of the same compound?
The value was 89.4 nM.

What about the “relative IC50” value [11, 24] of the same compound?
Its value is 89 nM.

What about the “relative IC50” value [12, 20] of the same compound?
Its value is 14.2 nM.

And the “relative IC50” value [12, 21]?
The value was 183 nM.

And the “relative IC50” value [12, 22]?
The value was 17.6 nM.

And the “relative IC50” value [12, 24]?
Its value is 40.8 nM.

And the “relative IC50” value [13, 20]?
Its value is 12.4 nM.

And the “relative IC50” value [13, 22]?
Its value is 42.6 nM.

And the “relative IC50” value [13, 23]?
The value was 221 nM.

And the “relative IC50” value [13, 24]?
Its value is 123 nM.

And the “relative IC50” value [14, 20]?
Its value is 14.5 nM.

And the “relative IC50” value [14, 22]?
Its value is 43.5 nM.

What about the “relative IC50” value [14, 23] of the same compound?
The value was 532 nM.

What about the “relative IC50” value [14, 24] of the same compound?
The value was 223 nM.

What about the “relative IC50” value [15, 20] of the same compound?
Its value is 76.8 nM.

What about the “relative IC50” value [15, 22] of the same compound?
The value was 98.8 nM.

What about the “relative IC50” value [16, 20] of the same compound?
The value was 20.4 nM.

And the “relative IC50” value [16, 21]?
The value was 95.9 nM.

What about the “relative IC50” value [16, 22] of the same compound?
Its value is 21 nM.

What about the “relative IC50” value [16, 23] of the same compound?
The value was 64.6 nM.

What about the “relative IC50” value [16, 24] of the same compound?
The value was 37.6 nM.

What about the “relative IC50” value [17, 22] of the same compound?
Its value is 35.2 nM.

What about the “relative IC50” value [17, 23] of the same compound?
Its value is 148 nM.

What about the “relative IC50” value [18, 20] of the same compound?
The value was 150 nM.

And the “relative IC50” value [18, 21]?
Its value is 212 nM.

And the “relative IC50” value [18, 22]?
Its value is 184 nM.

What about the “relative IC50” value [18, 23] of the same compound?
Its value is 653 nM.

What about the “relative IC50” value [18, 24] of the same compound?
The value was 102 nM.

And the “relative IC50” value [19, 20]?
Its value is 122 nM.

What about the “relative IC50” value [19, 21] of the same compound?
Its value is 773 nM.

What about the “relative IC50” value [19, 22] of the same compound?
Its value is 159 nM.

What about the “relative IC50” value [19, 23] of the same compound?
The value was 163 nM.

What about the “relative IC50” value [19, 24] of the same compound?
The value was 228 nM.
